Data set [1] has as its system B cell receptor-mediated activation of B cells in human blood (CD69 expression). Nature of the data set: Inhibition of B cell activation in whole blood measured by CD69 expression. The class given is cell-based. The settings on record: anti-IgM stimulation, 20 h, 50% decrease of CD69-positive cells that are also CD20-positive. Summed up: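 Healthy-donor human whole blood (heparin) preincubated with compound (nine-point, three-fold dilutions) for 30 min at 37 °C, then stimulated with goat F(ab′)2 anti-human IgM (50 μg/ml final) for 20 h. CD69-positive B cells (CD20 gating) measured by flow cytometry as percent positive; IC50 from dose-response fit.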

Compound `CN1CCN(Cc2ccc(Nc3cc(-c4cccc(-n5ncc6cc(C(C)(C)C)cc(F)c6c5=O)c4CO)cn(C)c3=O)nc2)CC1` [Example I-15, 6-tert-butyl-8-fluoro-2-(2-hydroxymethyl-3-{1-methyl-5-[5-(4-methyl-piperazin-1-ylmethyl)-pyridin-2-ylamino]-6-oxo-1,6-dihydro-pyridin-3-yl}-phenyl)-2H-phthalazin-1-one] came in with a melting point of 235 to 238 °C. In data set [1], this compound yielded an IC50 of 7 nM.
Compound `CN1CC(Oc2ccc(Nc3cc(-c4cccc(-n5ncc6cc(C(C)(C)C)cc(F)c6c5=O)c4CO)cn(C)c3=O)nc2)C1` [Example 27, 6-tert-Butyl-8-fluoro-2-(2-hydroxymethyl-3-{1-methyl-5-[5-(1-methyl-azetidin-3-yloxy)-pyridin-2-ylamino]-6-oxo-1,6-dihydro-pyridin-3-yl}-phenyl)-2H-phthalazin-1-one] came in with a melting point greater than 300 °C.
`CCNCc1ccc(Nc2cc(-c3cccc(-n4ncc5cc(C(C)(C)C)cc(F)c5c4=O)c3CO)cn(C)c2=O)nc1` [Example 29, 6-tert-Butyl-2-{3-[5-(5-ethylaminomethyl-pyridin-2-ylamino)-1-methyl-6-oxo-1,6-dihydro-pyridin-3-yl]-2-hydroxymethyl-phenyl}-8-fluoro-2H-phthalazin-1-one]: the melting point is 265 to 268 °C.

For orientation: IC50 means the point on the concentration scale where inhibition reaches its midpoint. Higher therefore signals weaker potency. For orientation: melting point means the temperature, or range, at which the solid turns liquid.

Values taken from patent US8299077B2 (Roche Palo Alto LLC, priority 2009, dated 2012).
